Results from PubChem BioAssay (NCI).
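Results reflect a 48-hour exposure of cells in 96-well plates to compound at five concentrations. TGI: concentration producing complete growth inhibition.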

Tests used:
Assay in all cases: growth of human tumour cells (NCI), 48 h
ACHN renal = system: ACHN renal
PC-3 prostate = system: PC-3 prostate
A549 NSCLC = system: A549 NSCLC
786-0 renal = system: 786-0 renal
SW-620 colon = system: SW-620 colon
A498 renal = system: A498 renal
SF-268 CNS = system: SF-268 CNS
IGROV1 ovarian = system: IGROV1 ovarian
HOP-62 NSCLC = system: HOP-62 NSCLC
SF-295 CNS = system: SF-295 CNS
HS 578T breast = system: HS 578T breast
BT-549 breast = system: BT-549 breast
NCI-H522 lung = system: NCI-H522 lung
TK-10 renal = system: TK-10 renal
KM12 colon = system: KM12 colon
HCT-15 colon = system: HCT-15 colon
MDA-MB-435 = system: MDA-MB-435
UACC-257 melanoma = system: UACC-257 melanoma
OVCAR-5 ovarian = system: OVCAR-5 ovarian
RXF 393 renal = system: RXF 393 renal
MDA-MB-231 breast = system: MDA-MB-231 breast
SK-MEL-5 melanoma = system: SK-MEL-5 melanoma
NCI-H460 lung = system: NCI-H460 lung
T-47D breast = system: T-47D breast
NCI-H23 lung = system: NCI-H23 lung
UO-31 renal = system: UO-31 renal
HL-60(TB) leukemia = system: HL-60(TB) leukemia
DU-145 prostate = system: DU-145 prostate
MCF7 breast = system: MCF7 breast
OVCAR-3 ovarian = system: OVCAR-3 ovarian
SK-MEL-28 melanoma = system: SK-MEL-28 melanoma
HT29 colon = system: HT29 colon
SR leukemia = system: SR leukemia
SN12C renal = system: SN12C renal
CAKI-1 renal = system: CAKI-1 renal
OVCAR-4 ovarian = system: OVCAR-4 ovarian
OVCAR-8 ovarian = system: OVCAR-8 ovarian
EKVX NSCLC = system: EKVX NSCLC
LOX IMVI melanoma = system: LOX IMVI melanoma
U251 CNS = system: U251 CNS
NCI/ADR-RES ovarian = system: NCI/ADR-RES ovarian
K-562 leukemia = system: K-562 leukemia
COLO 205 colon = system: COLO 205 colon
MDA-N = system: MDA-N
HCT-116 colon = system: HCT-116 colon
SK-MEL-2 melanoma = system: SK-MEL-2 melanoma
SNB-19 CNS = system: SNB-19 CNS
UACC-62 melanoma = system: UACC-62 melanoma
SF-539 CNS = system: SF-539 CNS
HCC-2998 colon = system: HCC-2998 colon
MOLT-4 leukemia = system: MOLT-4 leukemia
HOP-92 NSCLC = system: HOP-92 NSCLC
M14 melanoma = system: M14 melanoma
CCRF-CEM leukemia = system: CCRF-CEM leukemia

Measured: TGI

CC(C)(C)c1cc2c(O)c(c1)C(c1ccccc1)c1cc(C(C)(C)C)cc(c1O)Cc1cc(C(C)(C)C)cc(c1O)C(c1ccccc1)c1cc(C(C)(C)C)cc(c1O)C2 (centres undefined)
> 100 µM: all assays above
